Read-outs that look alike come from different tables or passages of the source.
Tests used:
Kir4.1 = molecular target: T1, Kir4.1 (Homo sapiens, UniProt P78508); assay: Whole-cell patch clamp, Kir4.1 currents in transfected CHO-K1 cells; assay type: cell-based; conditions: for inhibition at 1 µM: CHO-K1, 1 μM; for inhibition at 10 µM: CHO-K1, 10 μM; for inhibition at 0.5 µM: CHO-K1, 0.5 μM
T1 construct: host or cells: CHO-K1
T1 sequence (P78508 1-379): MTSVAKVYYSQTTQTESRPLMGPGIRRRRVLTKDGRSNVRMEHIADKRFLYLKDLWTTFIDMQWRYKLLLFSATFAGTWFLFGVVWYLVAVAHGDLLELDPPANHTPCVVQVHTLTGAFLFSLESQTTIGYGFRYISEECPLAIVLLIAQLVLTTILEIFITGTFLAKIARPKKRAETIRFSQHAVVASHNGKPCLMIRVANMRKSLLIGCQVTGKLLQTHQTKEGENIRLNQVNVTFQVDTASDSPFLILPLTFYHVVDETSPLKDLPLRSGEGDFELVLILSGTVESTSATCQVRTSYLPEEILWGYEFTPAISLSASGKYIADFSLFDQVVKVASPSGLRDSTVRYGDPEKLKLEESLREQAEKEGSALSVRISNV
Method: Plasmids encoding WT human potassium channels Kir1.1, Kir2.1, Kir2.2, Kir4.1, and Kir4.2 were obtained from the Beijing Genomics Institute. All point mutations were constructed using the QuickChange II Site‐Directed Mutagenesis Kit (Stratagene) and subsequently verified by sequencing.
CHO‐K1 cells were maintained in DMEM/F12 growth medium containing 10% fetal bovine serum. Plasmids encoding the target genes (3600 ng) and enhanced green fluorescent protein (400 ng) were cotransfected into cells using Lipofectamine 2000 (Invitrogen) in accordance with the manufacturer's instructions. Cells were seeded onto poly‐d‐lysine (PDL)‐coated glass coverslips 1 h prior to electrophysiological recordings. All cells were cultured under standard conditions of 5% CO2 at 37 °C.
Whole‐cell patch‐clamp recordings were obtained either in transiently transfected CHO‐K1 cells or in primary cultured astrocytes at room temperature using standard patch‐clamp techniques with an Axopatch‐700B amplifier (Axon Instruments). The signals were filtered at 2 kHz and sampled at 20 kHz using the Digidata 1440A interface (Axon Instruments). The resistance of borosilicate glass pipettes was typically 2–4 MΩ when filled with the internal solution. Drug application was facilitated using a BPS perfusion system (ALA Scientific Instruments). Macroscopic currents generated by expressed potassium channels were recorded under the voltage‐clamp conditions with an internal pipette solution composed of (in mM): 140 KCl, 5 NaCl, 1 CaCl2, 1 MgCl2, 10 HEPES, and 10 EGTA, pH 7.2 adjusted with KOH. The external solution contained (in mM): 140 NaCl, 5 KCl, 2 CaCl2, 1 MgCl2, 10 glucose, and 10 HEPES, pH 7.4 adjusted with NaOH. Currents were elicited with a hyperpolarized voltage at −120 mV from the holding potential of −80 mV, followed by a ramp voltage depolarizing to +50 mV. Astrocytic resting membrane potentials were recorded under current‐clamp conditions (I = 0 pA) using standard internal and external solutions, determined immediately after achieving whole‐cell mode.

[1] = tested on: MDA-MB-468 breast cancer cells; assay: Cytotoxicity test (CCK-8); assay type: cell-based; conditions: Homo sapiens, MDA-MB-468, MDA-MB-468 breast cancer cells; read-out: IC50 ± SD (μM) for MDA-MB-468 Inhibition
Method: Cytotoxicity of all the tested compounds was determined using the cell counting kit‐8 (CCK‐8) assay kit (Beyotime, Shanghai, China). Briefly, MDA‐MB‐468 was cultured in L15 medium and plated in 96‐well plates at a density of 12,000 cells per well for 24 h at 37 °C in a 5% CO2 incubator. The tested compounds were dissolved in DMSO and diluted with culture medium (DMSO final concentration < 0.4%). Then the cells were treated with compounds (0.41, 1.23, 3.70, 11.11, 33.33, 100.00 µM) for 48 h. After treatments, removal of the supernatant liquor, 100 µL of new media diluted CCK‐8 solution (10% CCK‐8) was added into each well and incubated at 37 °C for 2 h. The absorbance of the mixture was directly measured at 450 nm. The results are presented as a percentage of the control.

[2] = +50 mV, read-out: Kir4.1 Inhibition ± SD (%) at 1 μM, +50 mV
[3] = -120 mV, read-out: Kir4.1 Inhibition ± SD (%) at 1 μM, -120 mV
[4] = +50 mV, read-out: Kir4.1 Inhibition ± SD (%) at 10 μM, +50 mV
[5] = -120 mV, read-out: Kir4.1 Inhibition ± SD (%) at 10 μM, -120 mV
[6] = +50 mV, read-out: Kir4.1 Inhibition ± SD (%) at 0.5 μM, +50 mV
[7] = -120 mV, read-out: Kir4.1 Inhibition ± SD (%) at 0.5 μM, -120 mV

Row | SMILES | inhibition at 1 µM (Kir4.1; [2]) | inhibition at 1 µM (Kir4.1; [3]) | inhibition at 10 µM (Kir4.1; [4]) | inhibition at 10 µM (Kir4.1; [5]) | IC50 [1] | inhibition at 0.5 µM (Kir4.1; [6]) | inhibition at 0.5 µM (Kir4.1; [7])
1 | COc1cnc(NCCCN2CCOCC2)nc1Nc1ccc2oc3ccccc3c2c1 [JX3218, N^4-(dibenzo[b,d]furan-2-yl)-5-methoxy-N^2-(3-morpholinopropyl)pyrimidine-2,4-diamine] | 1.15 ± 2.32% | 3.97 ± 2.03% | 86.8 ± 1.76% | 74.3 ± 4.51% | 13.3 ± 0.3 µM | – | –
2 | c1ccc2c(c1)oc1ccc(Nc3ccnc(NCC4(CN5CCOCC5)CC4)n3)cc12 [JX3235, N^4-(dibenzo[b,d]furan-2-yl)-N^2-((1-(morpholinomethyl)cyclopropyl)methyl)pyrimidine-2,4-diamine] | 10.8 ± 2.21% | 6.83 ± 3.85% | 92.4 ± 3.68% | 85.4 ± 5.46% | 11.3 ± 0.32 µM | – | –
3 | CC1(C)C2CN(CCCNc3nccc(Nc4ccc5oc6ccccc6c5c4)n3)CC21 (stereo not drawn) [JX3240, N^4-(dibenzo[b,d]furan-2-yl)-N^2-(3-(6,6-dimethyl-3-azabicyclo[3.1.0]hexan-3-yl)propyl)pyrimidine-2,4-diamine] | 90 ± 1.44% | 84.7 ± 4.13% | 97.46 ± 0.83% | 97.35 ± 0.65% | 5.37 ± 0.22 µM | -0.92 ± 3.58% | -0.29 ± 1.05%
4 | Nc1ccnc(NCCCN2CCOCC2)n1 [JX3201, N^2-(3-morpholinopropyl)pyrimidine-2,4-diamine] | – | – | 3.02 ± 1.37% | 4.04 ± 7.66% | > 50 µM | – | –
5 | CN(CCCN1CCOCC1)c1nccc(Nc2ccc3oc4ccccc4c3c2)n1 [JX3232, N^4-(dibenzo[b,d]furan-2-yl)-N^2-methyl-N^2-(3-morpholinopropyl)pyrimidine-2,4-diamine] | 6.81 ± 4.5% | -2.25 ± 0.47% | 96.94 ± 0.69% | 93.2 ± 1.48% | 6.77 ± 0.68 µM | – | –
6 | c1ccc(Nc2ccnc(NCCCN3CCOCC3)n2)cc1 [JX3204, N^2-(3-morpholinopropyl)-N^4-phenylpyrimidine-2,4-diamine] | – | – | 5.73 ± 2.33% | 0.47 ± 2.29% | > 50 µM | – | –
7 | c1ccc2c3c([nH]c2c1)CCC(Nc1ccnc(NCCCN2CCOCC2)n1)C3 (stereo not drawn) [JX3213, N^2-(3-morpholinopropyl)-N^4-(2,3,4,9-tetrahydro-1H-carbazol-3-yl)pyrimidine-2,4-diamine] | 55 ± 3.87% | 41.2 ± 4.03% | 79.1 ± 3.7% | 65.1 ± 4.67% | 17.7 ± 3.05 µM | – | –
8 | O=C(NCCCNc1nccc(Nc2ccc3oc4ccccc4c3c2)n1)N1CCOCC1 [JX3241, N-(3-((4-(dibenzo[b,d]furan-2-ylamino)pyrimidin-2-yl)amino)propyl)morpholine-4-carboxamide] | 4.09 ± 2.08% | 1.97 ± 2.44% | 84.2 ± 2.69% | 59.5 ± 3.66% | 21.1 ± 1.53 µM | – | –
9 | CC1CCN(CCCNc2nccc(Nc3ccc4oc5ccccc5c4c3)n2)CC1 [JX3245, N^4-(dibenzo[b,d]furan-2-yl)-N^2-(3-(4-methylpiperidin-1-yl)propyl)pyrimidine-2,4-diamine] | 96.35 ± 0.66% | 92.48 ± 0.8% | 96.84 ± 0.61% | 95.5 ± 2.8% | 5.95 ± 0.04 µM | 21.4 ± 6.07% | 9.76 ± 2.44%

Source: article PMC12903969, “Discovery of a Novel and Potent Kir4.1 Inhibitor as a Safe and Rapid‐Onset Antidepressant Agent in Mice” (Advanced Science, 2025)
